Reference: the supplement of paper PMC7021759

Test system: SK-N-MM (SKNMM-MYCN, doxycycline-inducible MYCN)
Assay: area under dose-response curve (CellTiter-Glo viability normalised to plate controls) (AUC (arbitrary units)); higher = more loss of viability; extreme values may be limits of the assay
Method in brief: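 Compounds were pin-transferred as 10-point 1:3 dilution series (890-fold stock dilution) onto SK-N-MM cells with doxycycline-inducible MYCN, plated at 1250 cells/100 μL in 96-well plates and switched about 24 h after plating to medium with or without doxycycline two days before dosing. Dosing was repeated on day 4, and CellTiter-Glo luminescence was read 3 or 8 days after drugging. Area under the dose-response curve came from log2 signals normalised to the positive and negative controls on each plate.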

[1] = MYCN induction (doxycycline): +doxycycline (MYCN induced), time after drugging: 3 days
[2] = MYCN induction (doxycycline): +doxycycline (MYCN induced), time after drugging: 8 days
[3] = MYCN induction (doxycycline): no doxycycline (MYCN not induced), time after drugging: 3 days
[4] = MYCN induction (doxycycline): no doxycycline (MYCN not induced), time after drugging: 8 days

## C=C1[C@@H](O)[C@@H]2O[C@]3(CC[C@H](/C=C/[C@@H](C)[C@@H]4CC(C)=C[C@@]5(O[C@H](C[C@@](C)(O)C(=O)O)CC[C@H]5O)O4)O3)CC[C@H]2O[C@@H]1[C@@H](O)C[C@H](C)[C@H]1O[C@@]2(CCCCO2)CC[C@H]1C [OKADAIC ACID]
[1]
  area under dose-response curve: 204
[2]
  area under dose-response curve: 277
[3]
  area under dose-response curve: 167
[4]
  area under dose-response curve: 266

## COc1cc(CCc2cc(NC(=O)c3ccc(N4CC(C)NC(C)C4)cc3)n[nH]2)cc(OC)c1 (stereo unspecified) [AZD4547]
[1]
  area under dose-response curve: 2.86
[2]
  area under dose-response curve: 3.53
[3]
  area under dose-response curve: 2.67
[4]
  area under dose-response curve: 3.59

## COc1cc(Nc2c(C#N)cnc3cc(OCCCN4CCN(C)CC4)c(OC)cc23)c(Cl)cc1Cl [BOSUTINIB]
[1]
  area under dose-response curve: 0.583
[2]
  area under dose-response curve: 0.0371
[3]
  area under dose-response curve: 0.885
[4]
  area under dose-response curve: 0.202

## S=c1[nH]cnc2nc[nH]c12 [MERCAPTOPURINE]
[1]
  area under dose-response curve: 8.11
[2]
  area under dose-response curve: 21.7
[3]
  area under dose-response curve: 12.1
[4]
  area under dose-response curve: 13.1

## Oc1ccc(C2=Cc3ccc(O)cc3OC2)cc1 [IDRONOXIL]
[1]
  area under dose-response curve: 38.3
[2]
  area under dose-response curve: 77.4
[3]
  area under dose-response curve: 17.5
[4]
  area under dose-response curve: 46.3

## O=C1NC(=O)[C@@H](c2cn3c4c(cccc24)CCC3)[C@@H]1c1c[nH]c2ccccc12 [TIVANTINIB]
[1]
  area under dose-response curve: 102
[2]
  area under dose-response curve: 135
[3]
  area under dose-response curve: 53.3
[4]
  area under dose-response curve: 77.2

## COc1cc2/c(=N/c3ccc(Br)cc3F)nc[nH]c2cc1OCC1CCN(C)CC1 [VANDETANIB]
[1]
  area under dose-response curve: 3.18
[2]
  area under dose-response curve: 0
[3]
  area under dose-response curve: 2.99
[4]
  area under dose-response curve: 125

## O=C(CCCCCCNC(=O)c1cnc(N(c2ccccc2)c2ccccc2)nc1)NO [ROCILINOSTAT]
[1]
  area under dose-response curve: 43.9
[2]
  area under dose-response curve: 94.7
[3]
  area under dose-response curve: 20.4
[4]
  area under dose-response curve: 76.4

## C1=N/C2=N/c3ccc(OCCN4CCCC4)c(c3)COC/C=C/COCc3cccc(c3)C(=C1)N2 [PACRITINIB]
[1]
  area under dose-response curve: 170
[2]
  area under dose-response curve: 176
[3]
  area under dose-response curve: 165
[4]
  area under dose-response curve: 198

## CCOC(=O)c1ccc(C#Cc2ccc3c(c2)C(C)(C)CCS3)nc1 [TAZAROTENE]
[1]
  area under dose-response curve: 3.59
[2]
  area under dose-response curve: 9.49
[4]
  area under dose-response curve: 0.284

## CNC(=O)c1cc(Oc2ccc(NC(=O)Nc3ccc(Cl)c(C(F)(F)F)c3)cc2)ccn1 [SORAFENIB]
[1]
  area under dose-response curve: 0
[2]
  area under dose-response curve: 0
[3]
  area under dose-response curve: 0
[4]
  area under dose-response curve: 0

## COC1=CC(c2cc3ccccc3[nH]2)=N/C1=C\c1[nH]c(C)cc1C [OBATOCLAX]
[1]
  area under dose-response curve: 195
[2]
  area under dose-response curve: 255
[3]
  area under dose-response curve: 178
[4]
  area under dose-response curve: 229

## CN(Cc1cnc2nc(N)nc(N)c2n1)c1ccc(C(=O)N[C@@H](CCC(=O)O)C(=O)O)cc1 [METHOTREXATE]
[1]
  area under dose-response curve: 3.6
[2]
  area under dose-response curve: 18.6
[3]
  area under dose-response curve: 0.0478

## Cc1ccc(NC(=O)c2ccc(CN3CCN(C)CC3)cc2)cc1Nc1nc(-c2cccnc2)cs1 [MASITINIB]
[1]
  area under dose-response curve: 0
[2]
  area under dose-response curve: 0
[3]
  area under dose-response curve: 0
[4]
  area under dose-response curve: 2.84

## CN1C(=O)[C@@]23C[C@]4([C@]56C[C@@]78SS[C@@](CO)(C(=O)N7[C@H]5Nc5ccccc56)N(C)C8=O)c5ccccc5N[C@@H]4N2C(=O)[C@]1(CO)SS3 [CHAETOCIN]
[1]
  area under dose-response curve: 327
[2]
  area under dose-response curve: 374
[3]
  area under dose-response curve: 349
[4]
  area under dose-response curve: 373

## Cc1cnc(NC(=O)Nc2cc(Br)c(C)cc2OC[C@@H]2CNCCO2)cn1 [RABUSERTIB]
[1]
  area under dose-response curve: 89.5
[2]
  area under dose-response curve: 171
[3]
  area under dose-response curve: 31
[4]
  area under dose-response curve: 95.5

## Cn1nnc2c(C(N)=O)ncn2c1=O [TEMOZOLOMIDE]
[1]
  area under dose-response curve: 0
[2]
  area under dose-response curve: 0
[3]
  area under dose-response curve: 0

## CC1(C)CCC(c2ccc(Cl)cc2)=C(CN2CCN(c3ccc(C(=O)NS(=O)(=O)c4ccc(N[C@H](CCN5CCOCC5)CSc5ccccc5)c(S(=O)(=O)C(F)(F)F)c4)cc3)CC2)C1 [NAVITOCLAX]
[1]
  area under dose-response curve: 8.7
[2]
  area under dose-response curve: 3.92
[3]
  area under dose-response curve: 0
[4]
  area under dose-response curve: 0.362

## O=C(Nc1c[nH]nc1-c1nc2ccc(CN3CCOCC3)cc2[nH]1)NC1CC1 [AT9283]
[1]
  area under dose-response curve: 91
[2]
  area under dose-response curve: 206
[3]
  area under dose-response curve: 42.9
[4]
  area under dose-response curve: 145

## Cc1sc2c(c1C)C(c1ccc(Cl)cc1)=N[C@@H](CC(N)=O)c1nnc(C)n1-2 [CPI-203]
[1]
  area under dose-response curve: 2.86
[2]
  area under dose-response curve: 38.6
[3]
  area under dose-response curve: 8.36
[4]
  area under dose-response curve: 30.9

## CNC(=O)c1cc(Oc2ccc(NC(=O)Nc3ccc(Cl)c(C(F)(F)F)c3)c(F)c2)ccn1 [REGORAFENIB]
[1]
  area under dose-response curve: 30.6
[2]
  area under dose-response curve: 47.7
[3]
  area under dose-response curve: 18.8
[4]
  area under dose-response curve: 61.4

## Cc1c2oc3c(C)ccc(C(=O)N[C@@H]4C(=O)N[C@H](C(C)C)C(=O)N5CCC[C@H]5C(=O)N(C)CC(=O)N(C)[C@@H](C(C)C)C(=O)O[C@@H]4C)c3nc-2c(C(=O)N[C@@H]2C(=O)N[C@H](C(C)C)C(=O)N3CCC[C@H]3C(=O)N(C)CC(=O)N(C)[C@@H](C(C)C)C(=O)O[C@@H]2C)c(N)c1=O [DACTINOMYCIN]
[1]
  area under dose-response curve: 140
[2]
  area under dose-response curve: 282
[3]
  area under dose-response curve: 91.4
[4]
  area under dose-response curve: 210

## CC[C@@H]1C(=O)N(C)c2cnc(Nc3ccc(C(=O)N[C@H]4CC[C@H](N5CCN(CC6CC6)CC5)CC4)cc3OC)nc2N1C(C)C [VOLASERTIB]
[1]
  area under dose-response curve: 87.9
[2]
  area under dose-response curve: 138
[4]
  area under dose-response curve: 75.2

## O=P1(N(CCCl)CCCl)NCCCO1 (stereo unspecified) [CYCLOPHOSPHAMIDE]
[1]
  area under dose-response curve: 0
[2]
  area under dose-response curve: 0
[3]
  area under dose-response curve: 0

## CC1=C(CC(=O)O)c2cc(F)ccc2/C1=C\c1ccc([S+](C)[O-])cc1 (stereo unspecified) [SULINDAC]
[2]
  area under dose-response curve: 0
[3]
  area under dose-response curve: 0
[4]
  area under dose-response curve: 0

## CC1=C(/C=C/C(C)=C/C=C/C(C)=C/C(=O)O)C(C)(C)CCC1 [TRETINON]
[2]
  area under dose-response curve: 0.434
[3]
  area under dose-response curve: 1.4
[4]
  area under dose-response curve: 0

## Cn1cc(-c2cnn3c(N)c(Br)c([C@@H]4CCCNC4)nc23)cn1
[1]
  area under dose-response curve: 67.2
[2]
  area under dose-response curve: 122
[3]
  area under dose-response curve: 31.4
[4]
  area under dose-response curve: 74.9

## C/C(=C\c1csc(C)n1)[C@@H]1C[C@@H]2O[C@]2(C)CCC[C@H](C)[C@H](O)[C@@H](C)C(=O)C(C)(C)[C@@H](O)CC(=O)N1 [IXABEPILONE]
[1]
  area under dose-response curve: 121
[2]
  area under dose-response curve: 199
[3]
  area under dose-response curve: 89.9
[4]
  area under dose-response curve: 138

## CN[C@H]1CN(c2ccc3c(=O)c(C(=O)O)cn(-c4nccs4)c3n2)C[C@@H]1OC [VOSAROXIN]
[1]
  area under dose-response curve: 39.3
[2]
  area under dose-response curve: 92.8
[3]
  area under dose-response curve: 16.4
[4]
  area under dose-response curve: 48.5

## O=C(c1ccc(F)c(F)c1Nc1ccc(I)cc1F)N1CC(O)([C@@H]2CCCCN2)C1 [COBIMETINIB]
[2]
  area under dose-response curve: 145
[3]
  area under dose-response curve: 51.1
[4]
  area under dose-response curve: 104

## CC(=O)O[C@H]1CC[C@@]2(C)C(=CC[C@@H]3[C@@H]2CC[C@]2(C)C(c4cccnc4)=CC[C@@H]32)C1 [ABIRATERONE ACETATE]
[1]
  area under dose-response curve: 8.14
[2]
  area under dose-response curve: 0
[3]
  area under dose-response curve: 6.74
[4]
  area under dose-response curve: 0.368
